Drawing on PubChem BioAssay (NCI), this text covers GI50 and TGI for eight compounds.

What all share (assay): NCI anticancer screen, dose series, 48 h
The subject of assay [1] is MDA-MB-231 breast.
The test system of assay [2] is UO-31 renal.
In assay [3] the test system is RPMI-8226 leukemia.
The test system of assay [4] is BT-549 breast.
The test system of assay [5] is SNB-19 CNS.
Assay [6] relates to U251 CNS.
For assay [7], the system named is OVCAR-8 ovarian.
Assay [8] concerns ACHN renal.
The test system of assay [9] is SNB-75 CNS.
Assay [10] deals with NCI-H522 lung.

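Step 1: Grow cells in 96-well plates. Step 2: Expose to compound for 48 hours at 5 concentrations. Step 3: Interpolate endpoints linearly; if unreached, use highest concentration. GI50 marks 50% less growth. Definition used: TGI = concentration required for complete inhibition of growth.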

With `COc1cc(-c2cc(C(=O)Nc3nc4ccccc4s3)nc3cc(-c4ccccc4)nn23)cc(OC)c1OC`, the GI50 in [1] is 5.63 µM; in [2], above 100000 nM; in assay [3], above 100 µM; in assay [4], 6.33 µM; in assay [5], 16.7 µM; in assay [6], 5140 nM. For the same compound, the GI50 in assay [7] is 5.37 µM; in [8], 45.7 µM; in [9] it was 2.77 µM; in assay [10], 1960 nM. Further, the TGI in assay [1] was 69.2 µM; in assay [2] it was above 100 µM; in assay [3] it was above 100 µM; in assay [4], 47 µM; in [5] it was 69.5 µM; in assay [6], 32.6 µM. For the same compound, the TGI in assay [7] is above 100 µM; in [8] it was above 100 µM; in assay [9], 16.1 µM; in [10] it was 7.82 µM.
As to `OCc1ccc(N(Cc2ccc(F)cc2)C2CCC2)cc1Cl`, the GI50 was 14.9 µM in [1]; 1880 nM in [2]; 3.03 µM in [3]; 17.7 µM in assay [4]; 13.8 µM in [5]; 1020 nM in assay [6]. For the same compound, the GI50 in [7] was 13.4 µM; in assay [8] it was 13.2 µM; in assay [9], 12.2 µM; in assay [10], 13000 nM. The TGI is 28.6 µM in [1]; 15.2 µM in [2]; 25.4 µM in assay [3]; 32.8 µM in assay [4]; 27.5 µM in [5]; 16.2 µM in assay [6]. Moreover, the TGI in assay [7] was 29.1 µM; in assay [8] it was 26.4 µM; in [9] it was 24.8 µM; in assay [10], 28.6 µM.
Take `O=C(O)C(Cc1ccccc1-c1ccccc1)C(=O)O`: the TGI in [1], in assay [2], in assay [3], in [4], in [5] and in [6] was above 100 µM throughout. Also, the TGI in assay [7], in [8], in assay [9] and in assay [10] was above 100 µM in each case.
Regarding `COc1cc2c3c(n(CCCO)c(=O)c2cc1OC)-c1cc2c(cc1C3=O)OCO2`, the GI50 in assay [1] was 23.4 µM; in assay [2], above 21200 nM; in assay [3] it was 11.6 µM; in [4] it was 2.22 µM; in [5], 14.5 µM; in assay [6], 2630 nM. The GI50 in assay [7] is 13.7 µM; in assay [8], 1.65 µM; in assay [9], 16.1 µM; in assay [10] it was above 40800 nM. In addition, the TGI was above 76.6 µM in assay [1]; above 100 µM in assay [2]; above 78 µM in assay [3]; 49 µM in [4]; above 100 µM in assay [5]; 27.8 µM in assay [6]. Moreover, the TGI is above 100 µM in assay [7], 9.83 µM in assay [8], above 79.1 µM in [9] and above 100 µM in [10].
Regarding `O=C(O)C1CCCN1Cc1c[nH]c2ccccc12` (stereo not given), the TGI in assay [1], in assay [2], in [3], in [4], in assay [5] and in assay [6] was above 100 µM throughout. Besides, the TGI in [7], in assay [8], in assay [9] and in assay [10] was above 100 µM throughout.
Take `COc1ccc2c(CN3CCC(CO)CC3)cc3cc4c(cc3c2c1)OCO4`: the GI50 in [1] was 1.35 µM; in assay [2], 252 nM; in assay [3] it was 0.256 µM; in assay [4], 0.6 µM; in [5], 0.392 µM; in assay [6] it was 265 nM. Further, the GI50 in [7] was 0.0844 µM; in [8], 0.0825 µM; in assay [9], 0.474 µM; in assay [10] it was 135 nM. In addition, the TGI in assay [1] stood at 12.3 µM; in [2], 19 µM; in [3], 0.919 µM; in assay [4], 3.87 µM; in [5] it was 12.1 µM; in assay [6], 8.82 µM. Besides, the TGI was 2.19 µM in assay [7], 0.45 µM in assay [8], 2 µM in assay [9] and 0.363 µM in assay [10].
With `CCOC(=O)c1sc2ncn(Cc3cccc(Cl)c3)c(=O)c2c1C`, the GI50 in [1] was 13.6 µM; in [2], 13500 nM; in assay [3] it was 5.58 µM; in assay [4] it was 17.2 µM; in assay [5], 16.3 µM; in assay [6] it was 12900 nM. Also, the GI50 in assay [7] was 15.1 µM; in assay [8] it was 14.7 µM; in [9] it was 16.4 µM; in [10] it was 10900 nM. Further, the TGI is 26.4 µM in assay [1]; 26.4 µM in assay [2]; 18.4 µM in assay [3]; 30.9 µM in [4]; 29.8 µM in assay [5]; 25.6 µM in assay [6]. In addition, the TGI in assay [7] was 28.4 µM; in [8] it was 27.9 µM; in assay [9], 29.9 µM; in assay [10], 23.3 µM.
For the compound `COC(=O)/C=C1\SC(=Nc2ccc(C(F)(F)F)cc2)N(CCc2c[nH]c3ccccc23)C1=O`, the GI50 was 1.5 µM in [1]; 1300 nM in assay [2]; 1.13 µM in assay [3]; 1.53 µM in [4]; 1.78 µM in assay [5]; 1630 nM in [6]. In addition, the GI50 is 1.74 µM in assay [7], 1.56 µM in [8], 1.21 µM in assay [9] and 1710 nM in [10]. For the same compound, the TGI in assay [1] came to 2.87 µM; in assay [2], 2.56 µM; in assay [3], 4.3 µM; in assay [4] it was 3.16 µM; in assay [5], 3.45 µM; in assay [6], 2.99 µM. Besides, the TGI is 4.6 µM in [7], 2.9 µM in assay [8], 2.48 µM in assay [9] and 3.91 µM in assay [10].
